Key:
Type in all cases: cell-based, human
actin = assay: Actin immunostaining of HNEC monolayer (tight junction); conditions: 3 h exposure with geniposide 50 µg·mL^−1, vs control
Source text: Cells cultured on 12-well polyester membrane Transwell clear inserts were stained for actin. […] Fluorescence was visualized on an epifluorescence microscope (IX-71, Olympus, Japan) using a blue filter and images were taken using the analysis software.

HNEC monolayer = assay: TEER measurement of HNEC monolayer; conditions: for TEER after washing and incubating with BEGM:DMEM/F12 (1∶1) for 24 h: after permeation experiment; for TEER decrease during permeation studies, of the initial value: borneol 55.6, 111.2 µg·mL^−1, muscone 8.34, 16.68 µg·mL^−1, and combinations, P<0.05
Experimental: Transepithelial electrical resistance was measured using an EVOM instrument (Millipore Corporation, USA) to check the monolayer integrity. The TEER of untreated cells and cells treated with borneol and muscone was determined in BEGM:DMEM/F12 (1∶1) before the experiment, after the experiment and after 24 h.

HNECs [1] = assay: Membrane fluidity of HNECs by FRAP
Experimental: The cells were seeded on cell plate at a density of 5×10^4 cells·cm^−2. The above formulation groups were added and the plates were incubated for 3 h at 37 °C in a 5% CO2 incubator. Cells were rinsed with HBSS and stained with NBD-C6-HPC at 2 µg·mL^−1 for 30 min.
A method of fluorescence recovery after photobleaching (FRAP) was used here. After the definition of line scanning position, length and photobleaching position, the monolayer was visualized by a Confocal Laser Scanning Microscope under the following conditions: excitation wavelength of 488 nm, emission wavelength of 530 nm, laser power for fluorescence bleaching of 100%, bleaching time of 0.7 s, scanning frequency of 1.65 s and the total scanning time of 100 s. The fluorescence intensity time-variation at the photobleaching position was recorded and image formation was obtained by confocal tomoscanning.
The membrane fluidity was represented by fluorescence recovery rate (R) which was calculated with the following equation (4): [drawing 4] where F0 is the instant fluorescence value after photobleaching, F1 is the fluorescence value before photobleaching and F2 is the fluorescence recovery value after photobleaching.

HNECs [2] = assay: MTT cytotoxicity assay on HNECs; conditions: 24 h
Experimental: The cytotoxicity of the main active ingredients in “Xing Nao Jing” on HNECs was evaluated by the methyl thiazolyl tetrazolium (MTT) colorimetric assay. Briefly, 100 µL of 5×10^4 cells·mL^−1 was seeded into 96-well plates. After 24 h, the medium was removed and replaced with a fresh medium containing increasing concentrations of geniposide, borneol, muscone and their combinations for another 24 h. After that, 15 µL of a 5 mg·mL^−1 MTT solution in 100 µL BEGM was added to each well. After 4 h of incubation, the supernatant was discarded and formazan crystals were dissolved in DMSO followed by vigorous mixing. Control wells were incubated with BEGM only and were treated similarly as above. The optical density was determined at 490 nm with a Multiskan Go microplate reader (Thermo, USA). The percent viability of the cells was determined from the absorbance values considering that of the control as 100%.
The percentage of cell toxicity in the MTT assay was calculated by the following equation (1): [drawing 1]

Row | Structure (SMILES) | levels of the TJ proteins localized in the cell-cell junctions (actin) | TEER after washing and incubating with BEGM:DMEM/F12 (1∶1) for 24 h (HNEC monolayer) | TEER decrease during permeation studies, of the initial value (HNEC monolayer) | Fluorescence recovery rate R (%)±SD (HNECs [1]; Mu 4.17 µg·mL^−1 with Ge 50 µg·mL^−1, 3 h) | Fluorescence recovery rate R (%)±SD (HNECs [1]; Mu 8.34 µg·mL^−1 with Ge 50 µg·mL^−1, 3 h) | Fluorescence recovery rate R (%)±SD (HNECs [1]; Mu 16.68 µg·mL^−1 with Ge 50 µg·mL^−1, 3 h) | concentration range with no cell cytotoxicity (HNECs [2]) | Fluorescence recovery rate R (%)±SD (HNECs [1]; Bo 27.8 µg·mL^−1 with Ge 50 µg·mL^−1, 3 h) | Fluorescence recovery rate R (%)±SD (HNECs [1]; Bo 55.6 µg·mL^−1 with Ge 50 µg·mL^−1, 3 h) | Fluorescence recovery rate R (%)±SD (HNECs [1]; Bo 111.2 µg·mL^−1 with Ge 50 µg·mL^−1, 3 h)
1 | C[C@@H]1CCCCCCCCCCCCC(=O)C1 [muscone, Muscone] | decreased | increased again | 10–20% | 36.43±3.37% | 45.45±1.68 % | 49.77±5.63 % | – | – | – | –
2 | CC1(C)C2CCC1(C)C(O)C2 (stereo not shown) [borneol, Borneol] | decreased | increased again | 10–20% | – | – | – | 0 to 300000 ng/mL | 37.08±5.05% | 49.60±4.21 % | 57.33±4.62 %
